Data from PMC7714403 (JCI Insight, 2020).
Where “and” joins values, the source holds several entries; their conditions need not be identical. Equal values may be shown once.

Experiments:
IKKe, TBK1 [1] = assay: KiNativ, OCI cells live cell; type: cell-based, human; conditions: labeling site Lys2, peptide DIKPGNIMR
[2] = Tolerability studies in tumor-bearing mice; type: in vivo; conditions: once daily continuously or 5 consecutive days per week, up to 3–6 weeks
Experimental: We performed tolerability studies in tumor-bearing 8- to 12-week-old female NOD-scid-γ (NSG) mice.
days/week, along with vehicle, was administered in female NSG mice engrafted with MOLM13 -Luc+ and
MOLM13-Res -Luc+ cells. Treatment started on day-7 and -13 post-tail vein injection (TVI) in MOLM13-Luc+
and MOLM13-Res -Luc+, respectively. Change in their daily weights (%) were followed for tolerability.
(1 picture or pasted object on this page, not shown here)

CaMKK2 = CaMKK2 (Homo sapiens, UniProt Q96RR4); assay: KiNativ, OCI cells live cell; type: cell-based; conditions: 2 h, labeling site Lys2, peptide […]
MAP3K3 = MAP3K3 (Homo sapiens, UniProt Q99759); assay: KiNativ, OCI cells live cell; type: cell-based; conditions: 2 h, labeling site Lys1, peptide […]
CDK6 = CDK6 (Homo sapiens, UniProt Q00534); assay: KiNativ, OCI cells live cell; type: cell-based; conditions: 2 h, labeling site Lys2, peptide […]
Erk5 = Erk5 (Homo sapiens, UniProt Q13164); assay: KiNativ, OCI cells live cell; type: cell-based; conditions: 2 h, labeling site Lys2, peptide […]
PCTAIRE2, PCTAIRE3 = assay: KiNativ, MOLM13 live cells; type: cell-based, human; conditions: 100 nM, 2 hours; Lys1
Experimental: (§1) Samples were analyzed by KiNativ in situ kinase profiling by ActivX Biosciences.

MAP3K15, MAP3K5, MAP3K6 = assay: KiNativ, MOLM13 live cells; type: cell-based, human; conditions: 100 nM, 2 hours; Lys1
Experimental: as §1

Wnk1, Wnk2, Wnk4 = assay: KiNativ, MOLM13 live cells; type: cell-based, human; conditions: 100 nM, 2 hours; Activation Loop
Experimental: as §1

[3] = system: RSK1 domain1, RSK2 domain1, RSK3 domain1; assay: KiNativ, MOLM13 live cells; type: cell-based, human; conditions: 100 nM, 2 hours; Lys2
Experimental: as §1

ABL, ARG = assay: KiNativ, MOLM13 live cells; type: cell-based, human; conditions: 100 nM, 2 hours
Experimental: as §1

p38d, p38g = assay: KiNativ, MOLM13 live cells; type: cell-based, human; conditions: 100 nM, 2 hours; Lys2
Experimental: as §1

KSR1, KSR2 = assay: KiNativ, MOLM13 live cells; type: cell-based, human; conditions: 100 nM, 2 hours; Activation Loop
Experimental: as §1

MAP2K1, MAP2K2 = assay: KiNativ, MOLM13 live cells; type: cell-based, human; conditions: 100 nM, 2 hours; Lys2
Experimental: as §1

NEK6, NEK7 = assay: KiNativ, MOLM13 live cells; type: cell-based, human; conditions: 100 nM, 2 hours; Lys2
Experimental: as §1

[4] = system: MSK1 domain1, MSK2 domain1; assay: KiNativ, MOLM13 live cells; type: cell-based, human; conditions: 100 nM, 2 hours; ATP Loop
Experimental: as §1

MAPKAPK2, MAPKAPK3 = assay: KiNativ, MOLM13 live cells; type: cell-based, human; conditions: 100 nM, 2 hours; Lys2
Experimental: as §1

CDK11, CDK8 = assay: KiNativ, MOLM13 live cells; type: cell-based, human; conditions: 100 nM, 2 hours; Lys2
Experimental: as §1

PCTAIRE1, PCTAIRE3 = assay: KiNativ, MOLM13 live cells; type: cell-based, human; conditions: 100 nM, 2 hours; Lys2
Experimental: as §1

MST1, MST2 = assay: KiNativ, MOLM13 live cells; type: cell-based, human; conditions: 100 nM, 2 hours; Lys2
Experimental: as §1

MARK2, MARK3 = assay: KiNativ, MOLM13 live cells; type: cell-based, human; conditions: 100 nM, 2 hours; Lys2
Experimental: as §1

NDR1, NDR2 = assay: KiNativ, MOLM13 live cells; type: cell-based, human; conditions: 100 nM, 2 hours; Activation Loop
Experimental: as §1

PI4KA, PI4KAP2 = assay: KiNativ, MOLM13 live cells; type: cell-based, human; conditions: 100 nM, 2 hours; ATP
Experimental: as §1

Wnk1, Wnk2, Wnk3 = assay: KiNativ, MOLM13 live cells; type: cell-based, human; conditions: 100 nM, 2 hours; Lys2
Experimental: as §1

[5] = system: CaMK2a, CaMK2b, CaMK2d, CaMK2g; assay: KiNativ, MOLM13 live cells; type: cell-based, human; conditions: 100 nM, 2 hours; Lys2
Experimental: as §1

AurA, AurB, AurC = assay: KiNativ, MOLM13 live cells; type: cell-based, human; conditions: 100 nM, 2 hours; ATP Loop
Experimental: as §1

Wnk1, Wnk2 = assay: KiNativ, MOLM13 live cells; type: cell-based, human; conditions: 100 nM, 2 hours; ATP Loop
Experimental: as §1

TAO1, TAO3 = assay: KiNativ, MOLM13 live cells; type: cell-based, human; conditions: 100 nM, 2 hours; Lys2
Experimental: as §1

AMPKa1, AMPKa2 = assay: KiNativ, MOLM13 live cells; type: cell-based, human; conditions: 100 nM, 2 hours
Experimental: as §1

IKKe, TBK1 [6] = assay: KiNativ, MOLM13 live cells; type: cell-based, human; conditions: 100 nM, 2 hours; Lys2
Experimental: as §1

SRPK1, SRPK2 = assay: KiNativ, MOLM13 live cells; type: cell-based, human; conditions: 100 nM, 2 hours; Lys1
Experimental: as §1

[7] = system: ZC1/HGK, ZC2/TNIK, ZC3/MINK; assay: KiNativ, MOLM13 live cells; type: cell-based, human; conditions: 100 nM, 2 hours; Lys2
Experimental: as §1

JNK1, JNK2, JNK3 = assay: KiNativ, MOLM13 live cells; type: cell-based, human; conditions: 100 nM, 2 hours; Lys2
Experimental: as §1

CK1g1, CK1g2, CK1g3 = assay: KiNativ, MOLM13 live cells; type: cell-based, human; conditions: 100 nM, 2 hours; ATP Loop
Experimental: as §1

FLT3 D835V = molecular target: T1, FLT3 D835V (Homo sapiens, UniProt P36888, D835V); assay: KdELECT binding assay
T1 construct: purchased Eurofins DiscoverX

MAP4K3 = MAP4K3 (Homo sapiens, UniProt Q8IVH8); assay: KiNativ, OCI cells live cell; type: cell-based; conditions: labeling site Lys2, peptide DIKGANILLTDNGHVK
DLK = DLK (Homo sapiens, UniProt Q12852); assay: KiNativ, OCI cells live cell; type: cell-based; conditions: labeling site Lys2, peptide DLKSPNMLITYDDVVK
FGFR1 = molecular target: T2, FGFR1 (Homo sapiens, UniProt P11362); assay: KdELECT binding assay
T2 construct: purchased Eurofins DiscoverX

CDK9 = CDK9 (Homo sapiens, UniProt P50750); assay: KiNativ, OCI cells live cell; type: cell-based; conditions: 2 h
Chain of CDK9 (P50750 whole entry): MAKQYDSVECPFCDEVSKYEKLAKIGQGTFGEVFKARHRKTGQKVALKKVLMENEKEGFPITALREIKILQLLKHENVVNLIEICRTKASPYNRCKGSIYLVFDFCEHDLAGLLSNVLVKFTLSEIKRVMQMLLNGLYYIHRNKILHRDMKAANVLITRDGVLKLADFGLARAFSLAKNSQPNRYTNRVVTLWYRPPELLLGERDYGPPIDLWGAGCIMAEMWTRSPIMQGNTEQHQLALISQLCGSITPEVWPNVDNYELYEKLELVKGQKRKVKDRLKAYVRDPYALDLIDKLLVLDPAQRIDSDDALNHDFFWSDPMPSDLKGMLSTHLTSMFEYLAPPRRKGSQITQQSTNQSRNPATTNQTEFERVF
Chain of CDK9 (O60563 whole entry partner): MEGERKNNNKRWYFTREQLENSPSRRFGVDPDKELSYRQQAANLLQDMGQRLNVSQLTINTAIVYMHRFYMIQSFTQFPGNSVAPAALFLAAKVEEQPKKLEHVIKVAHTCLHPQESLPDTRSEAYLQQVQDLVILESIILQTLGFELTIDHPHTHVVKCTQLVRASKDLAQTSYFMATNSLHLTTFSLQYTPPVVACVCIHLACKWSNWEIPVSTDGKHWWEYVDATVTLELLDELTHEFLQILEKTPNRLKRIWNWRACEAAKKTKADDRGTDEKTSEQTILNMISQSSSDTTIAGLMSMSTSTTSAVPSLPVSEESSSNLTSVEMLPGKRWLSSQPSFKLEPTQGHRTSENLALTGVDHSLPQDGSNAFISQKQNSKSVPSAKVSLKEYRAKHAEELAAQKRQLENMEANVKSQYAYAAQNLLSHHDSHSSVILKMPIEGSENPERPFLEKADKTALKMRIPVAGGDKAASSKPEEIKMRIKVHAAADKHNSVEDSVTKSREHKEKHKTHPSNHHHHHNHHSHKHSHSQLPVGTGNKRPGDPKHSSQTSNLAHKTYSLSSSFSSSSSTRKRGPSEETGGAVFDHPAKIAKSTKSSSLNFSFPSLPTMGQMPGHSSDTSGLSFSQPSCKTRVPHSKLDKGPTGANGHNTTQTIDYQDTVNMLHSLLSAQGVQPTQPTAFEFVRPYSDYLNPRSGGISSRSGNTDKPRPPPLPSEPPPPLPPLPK

Chain of CaMKK2 (Q96RR4 whole entry): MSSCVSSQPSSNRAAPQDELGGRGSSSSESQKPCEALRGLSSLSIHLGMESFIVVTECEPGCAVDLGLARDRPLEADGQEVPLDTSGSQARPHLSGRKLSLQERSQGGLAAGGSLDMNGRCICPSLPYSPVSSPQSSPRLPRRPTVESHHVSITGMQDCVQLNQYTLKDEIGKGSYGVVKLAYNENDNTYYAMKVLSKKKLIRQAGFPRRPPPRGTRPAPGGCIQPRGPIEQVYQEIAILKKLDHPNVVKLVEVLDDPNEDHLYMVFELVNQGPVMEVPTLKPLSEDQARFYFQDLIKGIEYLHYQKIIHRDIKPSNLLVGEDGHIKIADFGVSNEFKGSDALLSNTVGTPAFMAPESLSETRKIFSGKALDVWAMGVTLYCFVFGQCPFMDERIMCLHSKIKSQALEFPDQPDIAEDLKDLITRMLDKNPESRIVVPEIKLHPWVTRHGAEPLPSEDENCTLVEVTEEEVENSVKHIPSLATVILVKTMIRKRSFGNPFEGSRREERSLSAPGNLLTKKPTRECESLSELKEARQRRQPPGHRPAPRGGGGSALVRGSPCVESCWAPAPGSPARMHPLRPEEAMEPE
T2 sequence (P11362 22-822): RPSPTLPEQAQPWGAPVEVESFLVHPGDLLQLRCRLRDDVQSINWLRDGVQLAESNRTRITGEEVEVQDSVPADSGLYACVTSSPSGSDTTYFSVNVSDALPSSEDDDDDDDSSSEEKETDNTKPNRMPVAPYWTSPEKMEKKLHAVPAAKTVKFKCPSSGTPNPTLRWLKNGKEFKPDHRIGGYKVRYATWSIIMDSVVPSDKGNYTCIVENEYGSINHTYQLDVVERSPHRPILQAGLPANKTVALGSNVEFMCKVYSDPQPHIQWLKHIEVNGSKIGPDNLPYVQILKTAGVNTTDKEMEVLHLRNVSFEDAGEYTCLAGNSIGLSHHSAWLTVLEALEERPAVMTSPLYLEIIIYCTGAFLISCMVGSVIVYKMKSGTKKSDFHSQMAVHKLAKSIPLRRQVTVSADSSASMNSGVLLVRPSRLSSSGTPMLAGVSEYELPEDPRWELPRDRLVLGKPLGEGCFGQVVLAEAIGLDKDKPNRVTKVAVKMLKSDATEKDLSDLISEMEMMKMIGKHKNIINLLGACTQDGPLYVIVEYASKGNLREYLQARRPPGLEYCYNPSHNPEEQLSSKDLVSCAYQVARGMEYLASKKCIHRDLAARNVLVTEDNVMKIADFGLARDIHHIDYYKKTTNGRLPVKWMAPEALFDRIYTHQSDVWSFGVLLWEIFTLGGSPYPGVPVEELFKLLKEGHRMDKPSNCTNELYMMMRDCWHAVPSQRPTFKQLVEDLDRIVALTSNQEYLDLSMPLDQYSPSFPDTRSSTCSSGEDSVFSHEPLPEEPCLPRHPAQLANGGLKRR
Chain of MAP3K3 (Q99759 whole entry): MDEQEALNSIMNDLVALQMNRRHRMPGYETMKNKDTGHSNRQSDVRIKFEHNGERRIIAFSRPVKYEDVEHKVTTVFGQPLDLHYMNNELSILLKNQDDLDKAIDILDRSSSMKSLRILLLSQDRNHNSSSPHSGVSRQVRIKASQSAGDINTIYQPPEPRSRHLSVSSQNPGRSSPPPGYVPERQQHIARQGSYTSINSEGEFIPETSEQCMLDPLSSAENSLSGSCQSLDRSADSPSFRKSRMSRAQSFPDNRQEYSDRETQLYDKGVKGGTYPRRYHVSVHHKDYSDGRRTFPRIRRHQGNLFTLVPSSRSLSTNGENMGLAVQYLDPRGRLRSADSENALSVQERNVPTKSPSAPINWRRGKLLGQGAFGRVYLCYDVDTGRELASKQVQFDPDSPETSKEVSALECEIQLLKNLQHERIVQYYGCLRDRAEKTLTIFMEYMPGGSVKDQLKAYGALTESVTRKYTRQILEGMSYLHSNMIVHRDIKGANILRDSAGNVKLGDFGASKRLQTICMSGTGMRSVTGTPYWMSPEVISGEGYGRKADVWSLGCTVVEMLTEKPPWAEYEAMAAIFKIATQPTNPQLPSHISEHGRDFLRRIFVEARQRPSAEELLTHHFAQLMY
Chain of DLK (Q12852 whole entry): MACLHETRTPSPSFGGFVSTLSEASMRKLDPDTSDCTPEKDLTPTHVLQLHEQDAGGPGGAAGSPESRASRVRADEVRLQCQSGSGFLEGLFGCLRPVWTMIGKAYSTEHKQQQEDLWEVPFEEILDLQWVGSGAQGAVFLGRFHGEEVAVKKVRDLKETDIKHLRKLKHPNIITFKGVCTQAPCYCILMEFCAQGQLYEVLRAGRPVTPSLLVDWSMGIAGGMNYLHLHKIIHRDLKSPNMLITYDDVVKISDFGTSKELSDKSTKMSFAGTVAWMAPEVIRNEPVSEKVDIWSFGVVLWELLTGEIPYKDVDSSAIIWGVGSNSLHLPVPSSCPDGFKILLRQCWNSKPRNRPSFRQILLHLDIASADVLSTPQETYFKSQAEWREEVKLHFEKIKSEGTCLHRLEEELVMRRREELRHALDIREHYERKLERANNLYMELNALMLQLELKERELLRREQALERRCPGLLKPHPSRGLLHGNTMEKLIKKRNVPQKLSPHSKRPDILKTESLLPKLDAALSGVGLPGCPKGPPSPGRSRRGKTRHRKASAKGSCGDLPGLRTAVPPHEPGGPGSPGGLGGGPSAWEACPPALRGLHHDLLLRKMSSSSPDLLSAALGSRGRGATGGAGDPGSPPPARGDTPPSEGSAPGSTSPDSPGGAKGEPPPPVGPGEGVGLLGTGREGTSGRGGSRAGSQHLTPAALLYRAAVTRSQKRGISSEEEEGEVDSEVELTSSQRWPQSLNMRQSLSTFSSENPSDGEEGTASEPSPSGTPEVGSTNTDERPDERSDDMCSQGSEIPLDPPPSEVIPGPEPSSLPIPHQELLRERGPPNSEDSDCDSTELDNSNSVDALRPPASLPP
Chain of Erk5 (Q13164 whole entry): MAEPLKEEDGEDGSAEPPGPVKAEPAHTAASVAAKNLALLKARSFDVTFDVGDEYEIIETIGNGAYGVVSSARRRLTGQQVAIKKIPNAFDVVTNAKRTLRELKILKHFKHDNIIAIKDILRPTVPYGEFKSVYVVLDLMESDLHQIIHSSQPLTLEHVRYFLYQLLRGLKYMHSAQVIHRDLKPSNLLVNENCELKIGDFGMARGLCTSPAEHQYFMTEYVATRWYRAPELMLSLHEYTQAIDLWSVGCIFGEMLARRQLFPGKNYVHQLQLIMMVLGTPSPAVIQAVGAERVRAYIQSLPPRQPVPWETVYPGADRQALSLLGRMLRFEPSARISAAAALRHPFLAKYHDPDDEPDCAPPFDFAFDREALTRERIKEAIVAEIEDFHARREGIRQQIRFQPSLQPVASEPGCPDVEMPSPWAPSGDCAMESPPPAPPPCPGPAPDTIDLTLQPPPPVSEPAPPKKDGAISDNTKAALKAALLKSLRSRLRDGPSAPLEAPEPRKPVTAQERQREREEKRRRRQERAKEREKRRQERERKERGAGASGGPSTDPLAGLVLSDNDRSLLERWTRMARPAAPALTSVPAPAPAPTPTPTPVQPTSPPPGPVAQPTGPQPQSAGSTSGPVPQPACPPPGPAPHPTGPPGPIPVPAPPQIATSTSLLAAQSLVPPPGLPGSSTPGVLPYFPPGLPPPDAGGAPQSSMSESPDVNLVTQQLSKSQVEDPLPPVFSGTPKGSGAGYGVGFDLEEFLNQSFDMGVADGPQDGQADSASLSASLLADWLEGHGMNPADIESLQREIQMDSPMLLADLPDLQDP

**Q.** What does the source list for CN1CCN(Cc2ccc(Nc3ncc(Cl)c(Nc4ccccc4S(=O)(=O)N(C)C)n3)cc2)CC1 [TP-0903]?
**A.** Inhibition (IKKe, TBK1 [1]): 64.1%; Highest tolerated doses [2]: 40 mg/kg and 60 mg/kg; inhibition at 0.1 µM (CaMKK2): 63.2%; inhibition at 0.1 µM (MAP3K3): 20%; inhibition at 0.1 µM (CDK6): 74.1%; inhibition at 0.1 µM (Erk5): 86.8%; Inhibition vs DMSO (PCTAIRE2, PCTAIRE3): -8.3%; Inhibition vs DMSO (MAP3K15, MAP3K5, MAP3K6): -11.5%; Inhibition vs DMSO (Wnk1, Wnk2, Wnk4): -35.0%; Inhibition vs DMSO [3]: 15.9%; Inhibition vs DMSO (ABL, ARG; Activation Loop): 5.0%; Inhibition vs DMSO (ABL, ARG; Lys1): 24.5%; Inhibition vs DMSO (p38d, p38g): -8.7%; Inhibition vs DMSO (KSR1, KSR2): -11.7%; Inhibition vs DMSO (MAP2K1, MAP2K2): -17.4%; Inhibition vs DMSO (NEK6, NEK7): 7.8%; Inhibition vs DMSO [4]: -6.6%; Inhibition vs DMSO (MAPKAPK2, MAPKAPK3): -22.0%; Inhibition vs DMSO (CDK11, CDK8): -1.1%; Inhibition vs DMSO (PCTAIRE1, PCTAIRE3): 81.4%; Inhibition vs DMSO (MST1, MST2): 41.2%; Inhibition vs DMSO (MARK2, MARK3): 37.1%; Inhibition vs DMSO (NDR1, NDR2): -0.8%; Inhibition vs DMSO (PI4KA, PI4KAP2): 11.9%; Inhibition vs DMSO (Wnk1, Wnk2, Wnk3): -31.8%; Inhibition vs DMSO [5]: -2.0%; Inhibition vs DMSO (AurA, AurB, AurC): 68.0%; Inhibition vs DMSO (Wnk1, Wnk2): -30.2%; Inhibition vs DMSO (TAO1, TAO3): 9.9%; Inhibition vs DMSO (AMPKa1, AMPKa2; Lys1): 19.6%; Inhibition vs DMSO (AMPKa1, AMPKa2; Lys2): 33.8%; Inhibition vs DMSO (IKKe, TBK1 [6]): 74.5%; Inhibition vs DMSO (SRPK1, SRPK2): 21.8%; Inhibition vs DMSO [7]: 50.7%; Inhibition vs DMSO (JNK1, JNK2, JNK3): 18.9%; Inhibition vs DMSO (CK1g1, CK1g2, CK1g3): -28.7%; Kd (FLT3 D835V): 2.1 nM; Inhibition (MAP4K3): 64.9%; Inhibition (DLK): 91.0%; Kd (FGFR1): 21 nM; inhibition at 0.1 µM (CDK9; labeling site ATP Loop, peptide IGQGTFGEVFKAR): -30.7%; inhibition at 0.1 µM (CDK9; labeling site Lys2, peptide DMKAANVLITR): 32.9%
